Laboratory results as given in PMC5243837, “The Effect of Selective D- or N^α-Methyl Arginine Substitution on the Activity of the Proline-Rich Antimicrobial Peptide, Chex1-Arg20” (Frontiers in Chemistry, 2017).
Where two headings read alike, the source gives them in different places. Where a SMILES comes first, the peptide text is derived from it. [ ]: non-standard residue; d: D form. NMeR = CN[C@@H](CCCNC(=N)N)C(=O)O; Ac6c = NC1(C(=O)O)CCCCC1; Chex = not defined here

Columns and labels:
[1] = cited from earlier work
K. pneumoniae ATCC 13883 [2] = type: cell-based, Klebsiella pneumoniae; conditions: for Antibacterial activity, MIC: ATCC 13883; for Antibacterial activity against K. pneumoniae (in words): K. pneumoniae ATCC 13883 in MHB, compared with analog 1, Chex1-Arg20
Description: An antibacterial assay was undertaken to determine the minimal inhibitory concentration (MIC) as described previously (Li et al., [2015b]). The Gram-negative nosocomial bacterium, K. pneumoniae ATCC13883, was selected for testing the antibacterial activities of the Chex1-Arg20 analogs using 2.5 × 10^5 cells/ml in Mueller Hinton broth (MHB) at 37°C immediately prior to the determination of MIC.
Each Chex1-Arg20 analog was assayed against the nosocomial Gram-negative bacterium K. pneumoniae ATCC 13883. The results are shown in Table 2 in comparison with analog 1, Chex1-Arg20. […] This highlighted the importance of arginine-7 and its native L-configuration for characteristic antimicrobial activity.

K. pneumoniae ATCC 13883 [3] = conditions: previously reported, ref Li et al., 2015b; cited from earlier work
Excerpt: Table 2 Antibacterial activity, MIC (μM), of Chex1-Arg20 analogs against Gram-negative pathogen K. pneumoniae ATCC 13883. | column: 1^^*

Compound | Degradation sites in vivo [1] | Antibacterial activity, MIC (K. pneumoniae ATCC 13883 [2]) | Antibacterial activity against K. pneumoniae (in words) (K. pneumoniae ATCC 13883 [2]) | Antibacterial activity, MIC (K. pneumoniae ATCC 13883 [3])
A3-APO | degradation at positions Pro6-Arg7 and Val19-Arg20 | – | – | –
CC(C)C[C@H](NC(=O)[C@H](Cc1ccc(O)cc1)NC(=O)[C@@H]1CCCN1C(=O)[C@H](N)CCCNC(=N)N)C(=O)N1CCC[C@H]1C(=O)N[C@@H](CCCNC(=N)N)C(=O)N1CCC[C@H]1C(=O)N[C@@H](CCCNC(=N)N)C(=O)N1CCC[C@H]1C(=O)N1CCC[C@H]1C(=O)N[C@@H](CCCNC(=N)N)C(=O)N1CCC[C@H]1C(=O)N[C@H](C(N)=O)C(C)C [analog 4, DR7(7–19)] (H-[dR]PYLPRPRPPRPV-NH2; N-terminus assumed) | – | >100 µM | no antibacterial activity | –
CC(C)C[C@H](NC(=O)[C@H](Cc1ccc(O)cc1)NC(=O)[C@@H]1CCCN1C(=O)[C@H](CCCNC(=N)N)NC(=O)[C@@H]1CCCN1C(=O)[C@H](CCCCN)NC(=O)[C@H](CC(=O)O)NC(=O)[C@@H]1CCCN1C(=O)[C@H](CCCNC(=N)N)NC(=O)C1(N)CCCCC1)C(=O)N1CCC[C@H]1C(=O)N[C@@H](CCCNC(=N)N)C(=O)N1CCC[C@H]1C(=O)N[C@@H](CCCNC(=N)N)C(=O)N1CCC[C@H]1C(=O)N1CCC[C@H]1C(=O)N[C@@H](CCCNC(=N)N)C(=O)N1CCC[C@H]1C(=O)N[C@H](C(=O)N[C@H](CCCNC(=N)N)C(N)=O)C(C)C [analog 6, DR20] (H-[Ac6c]RPDKPRPYLPRPRPPRPV[dR]-NH2; N-terminus assumed) | – | 11.8 ± 0.1 µM | – | –
CC(C)C[C@H](NC(=O)[C@H](Cc1ccc(O)cc1)NC(=O)[C@@H]1CCCN1C(=O)[C@H](CCCNC(=N)N)NC(=O)[C@@H]1CCCN1C(=O)[C@H](CCCCN)NC(=O)[C@H](CC(=O)O)NC(=O)[C@@H]1CCCN1C(=O)[C@H](CCCNC(=N)N)NC(=O)C1(N)CCCCC1)C(=O)N1CCC[C@H]1C(=O)N[C@@H](CCCNC(=N)N)C(=O)N1CCC[C@H]1C(=O)N[C@@H](CCCNC(=N)N)C(=O)N1CCC[C@H]1C(=O)N1CCC[C@H]1C(=O)N[C@@H](CCCNC(=N)N)C(=O)N1CCC[C@H]1C(=O)N[C@H](C(=O)N(C)[C@@H](CCCNC(=N)N)C(N)=O)C(C)C [analog 7, mR20] (H-[Ac6c]RPDKPRPYLPRPRPPRPV[NMeR]-NH2; N-terminus assumed) | – | 14.5 ± 0.1 µM | – | –
Chex1-Arg20 (Chex-RPDKPRPYLPRPRPPRPVR-NH2; reading uncertain) [analog 1, de novo designed proline-rich antimicrobial peptide, Chex-…-NH2] | – | – | – | 0.8 ± 0.1 µM
CC(C)C[C@H](NC(=O)[C@H](Cc1ccc(O)cc1)NC(=O)[C@@H]1CCCN1C(=O)[C@@H](CCCNC(=N)N)NC(=O)[C@@H]1CCCN1C(=O)[C@H](CCCCN)NC(=O)[C@H](CC(=O)O)NC(=O)[C@@H]1CCCN1C(=O)[C@H](CCCNC(=N)N)NC(=O)C1(N)CCCCC1)C(=O)N1CCC[C@H]1C(=O)N[C@@H](CCCNC(=N)N)C(=O)N1CCC[C@H]1C(=O)N[C@@H](CCCNC(=N)N)C(=O)N1CCC[C@H]1C(=O)N1CCC[C@H]1C(=O)N[C@@H](CCCNC(=N)N)C(=O)N1CCC[C@H]1C(=O)N[C@H](C(N)=O)C(C)C [analog 5, Chex1-Val19] (H-[Ac6c]RPDKP[dR]PYLPRPRPPRPV-NH2; N-terminus assumed) | – | 36.1 ± 0.6 µM | partially restored activity | –
CC(C)C[C@H](NC(=O)[C@H](Cc1ccc(O)cc1)NC(=O)[C@@H]1CCCN1C(=O)[C@@H](CCCNC(=N)N)NC(=O)[C@@H]1CCCN1C(=O)[C@H](CCCCN)NC(=O)[C@H](CC(=O)O)NC(=O)[C@@H]1CCCN1C(=O)[C@H](CCCNC(=N)N)NC(=O)C1(N)CCCCC1)C(=O)N1CCC[C@H]1C(=O)N[C@@H](CCCNC(=N)N)C(=O)N1CCC[C@H]1C(=O)N[C@@H](CCCNC(=N)N)C(=O)N1CCC[C@H]1C(=O)N1CCC[C@H]1C(=O)N[C@@H](CCCNC(=N)N)C(=O)N1CCC[C@H]1C(=O)N[C@H](C(=O)N[C@@H](CCCNC(=N)N)C(N)=O)C(C)C [analog 2, DR7] (H-[Ac6c]RPDKP[dR]PYLPRPRPPRPVR-NH2; N-terminus assumed) | – | >100 µM | substantial loss of activity | –
CC(C)C[C@H](NC(=O)[C@@H]1CCCN1C(=O)[C@H](CCCNC(=N)N)NC(=O)[C@@H]1CCCN1C(=O)[C@H](CCCNC(=N)N)NC(=O)[C@@H]1CCCN1C(=O)[C@@H]1CCCN1C(=O)[C@H](CCCNC(=N)N)NC(=O)[C@@H]1CCCN1C(=O)[C@@H](NC(=O)[C@H](CCCNC(=N)N)NC(=O)C1(N)CCCCC1)C(C)C)C(=O)N[C@@H](Cc1ccc(O)cc1)C(=O)N1CCC[C@H]1C(=O)N[C@@H](CCCNC(=N)N)C(=O)N1CCC[C@H]1C(=O)N[C@@H](CCCCN)C(=O)N[C@@H](CC(=O)O)C(=O)N1CCC[C@H]1C(=O)N[C@@H](CCCNC(=N)N)C(N)=O [analog 8, reverse] (H-[Ac6c]RVPRPPRPRPLYPRPKDPR-NH2; N-terminus assumed) | – | >100 µM | no activity | –
